The values that follow come from PMC9512702 (Nature Chemical Biology, 2022).

SMILES strings stand for the structures. In brackets after ≈: the same amount, converted by molar mass. Several values for one entry are separate records, joined by “and”; a condition that tells them apart may be missing. Equal values may be shown once. Where a SMILES comes first, the peptide text is derived from it. [ ]: non-standard residue; d: D form. Cha = N[C@@H](CC1CCCCC1)C(=O)O; Aib = CC(C)(N)C(=O)O

What is called solubility (thermodynamic) is solubility found after equilibrating the solid with the medium. As usually defined, the IC50 is the midpoint of a concentration-inhibition curve. By Kd is commonly meant the equilibrium constant for the complex coming apart. A lower Kd goes with a tighter complex. The viability is a read-out of living cells in per cent, often relative to untreated cells.

A short description of data set [1]: Solubility measurement (peptide concentration in saturated solution). Conditions: sodium-phosphate buffer, pH 7.4, aqueous buffer, thermodynamic from solid.
Procedure: Approximately 2 mg of each peptide was added to 500 µl of buffer in 1.5-ml Eppendorf tubes. The tubes were shaken at 25 °C for 2 h on a 900 r.p.m. vortex shaker. The samples were centrifuged at 12,000 r.p.m. for 15 min to remove the precipitate and the supernatant was analyzed by ultraviolet–visible light (UV–vis) spectrometry.
Data set [2] addresses SARS-CoV-2 RBD binding to immobilized ACE2 (Severe acute respiratory syndrome coronavirus 2, UniProt P0DTC2). The data set can be described thus: biochemical.
In the next data set the target is SARS-CoV-2 RBD (Severe acute respiratory syndrome coronavirus 2, UniProt P0DTC2). The data set can be described thus: biochemical. In kind it is binding. Conditions: KD (direct binding to RBD).
Data set [3] in a line: Cell viability (MTT) assay, Vero-E6. In kind it is cell-based, monkey. Particulars: monkey; Vero-E6 cells, MTT, 20 μM (highest concentration tested), 48 h.
Procedure: (§1) The cell viability assay was performed by using the MTT (3-(4,5-dimethylthiazol-2-yl)-2,5-diphenyltetrazolium bromide) assay. […] The next day, 50 μl of media was removed from each well and 50 μl of the peptide was added in a dose-dependent manner. 10% DMSO (final concentration v/v) was used as a positive control for the induction of cytotoxicity. […] The plate was incubated for another 4 h in the humidified CO2 incubator, after which 100 μl of dissolving solution (10% SDS in 0.01 M HCl) was added to each well. The plate was then incubated in a CO2 incubator overnight. The next day, the plate was read for absorbance at 570 nm. The percentage viability of cells was recorded in comparison to the untreated cells.
A further data set relates to Vero-E6 cells. Kind of data set: Cell viability (MTT) assay, Vero-E6. The data set is classed as cell-based, monkey. Particulars: Vero-E6 cytotoxicity vs pseudovirus IC50.

Procedure for Vero-E6 cells: as §1

`CC[C@H](C)[C@H](NC(=O)[C@H](CC(C)C)NC(=O)[C@H](CC(=O)O)NC(=O)[C@H](CO)NC(=O)[C@@H](NC(=O)[C@H](CCCNC(=N)N)NC(=O)[C@H](CCSC)NC(=O)[C@H](CO)NC(=O)[C@H](C)NC(=O)[C@H](CCC(=O)O)NC(=O)C(C)(C)NC(=O)[C@H](CC(N)=O)NC(=O)[C@@H](C)NC(=O)[C@H](CC(C)C)NC(=O)[C@H](CCC(=O)O)NC(=O)[C@H](CC(=O)O)NC(=O)[C@H](CC(C)C)NC(=O)[C@H](CC(C)C)NC(=O)[C@H](CCCNC(=N)N)NC(=O)[C@H](CCSC)NC(=O)[C@@H](NC(=O)[C@H](CCC(=O)O)NC(=O)[C@H](Cc1ccc(O)cc1)NC(=O)[C@@H](NC(=O)[C@H](CCCCN)NC(=O)[C@H](CCC(N)=O)NC(=O)[C@H](CC(C)C)NC(=O)[C@@H](NC(=O)[C@H](Cc1c[nH]c2ccccc12)NC(=O)[C@H](CCC(=O)O)NC(=O)[C@H](CCCCN)NC(=O)[C@@H](N)CC(=O)O)[C@@H](C)CC)[C@@H](C)CC)[C@@H](C)CC)C(C)C)C(=O)N[C@@H](Cc1ccc(O)cc1)C(=O)N[C@@H](CCC(=O)O)C(=O)N[C@@H](Cc1ccccc1)C(=O)N[C@@H](CCSC)C(=O)N[C@@H](CCCCN)C(=O)N[C@@H](CCCCN)C(N)=O` [SIH-4] (H-DKEWILQKIYEIMRLLDEL[dA]N[Aib]EASMRVSDLIYEFMKK-NH2) registered a thermodynamic solubility at 2 h in data set [1] of 220 µM (≈ 1020 µg/mL). The IC50 in data set [2] lay in the range of 250 to 500 nM.

For the molecule `CC[C@H](C)[C@H](NC(=O)[C@H](CC(C)C)NC(=O)[C@H](CC(=O)O)NC(=O)[C@H](CO)NC(=O)[C@@H](NC(=O)[C@H](CCCNC(=N)N)NC(=O)[C@H](CCSC)NC(=O)[C@H](CO)NC(=O)[C@H](C)NC(=O)[C@H](CCC(=O)O)NC(=O)C(C)(C)NC(=O)[C@H](CC(=O)O)NC(=O)[C@@H](C)NC(=O)[C@H](CC(C)C)NC(=O)[C@H](CCC(=O)O)NC(=O)[C@H](CC(=O)O)NC(=O)[C@H](CC(C)C)NC(=O)[C@H](CC(C)C)NC(=O)[C@H](CCCNC(=N)N)NC(=O)[C@H](CCSC)NC(=O)[C@@H](NC(=O)[C@H](CCC(=O)O)NC(=O)[C@H](Cc1ccc(O)cc1)NC(=O)[C@@H](NC(=O)[C@H](CCCCN)NC(=O)[C@H](CCC(N)=O)NC(=O)[C@H](CC(C)C)NC(=O)[C@@H](NC(=O)[C@H](Cc1c[nH]c2ccccc12)NC(=O)[C@H](CCC(=O)O)NC(=O)[C@H](CCCCN)NC(=O)[C@@H](N)CC(=O)O)[C@@H](C)CC)[C@@H](C)CC)[C@@H](C)CC)C(C)C)C(=O)N[C@@H](Cc1ccc(O)cc1)C(=O)N[C@@H](CCC(=O)O)C(=O)N[C@@H](Cc1ccccc1)C(=O)N[C@@H](CCSC)C(=O)N[C@@H](CCCCN)C(=O)N[C@@H](CCCCN)C(N)=O` [SIH-5] (H-DKEWILQKIYEIMRLLDEL[dA]D[Aib]EASMRVSDLIYEFMKK-NH2), the Kd at SARS-CoV-2 RBD (re-analyzed) is ~0.9 nM and 0.9 nM. In data set [1], this molecule gave a thermodynamic solubility at 2 h greater than 700 µM. In addition, the viability at 48 h, 20 µM in data set [3] is greater than 75%. The molecule further yielded an IC50 in data set [2] of 125 to 250 nM.

Consider `CC[C@H](C)[C@H](NC(=O)[C@H](CC(C)C)NC(=O)[C@H](CC(=O)O)NC(=O)[C@H](CO)NC(=O)[C@@H](NC(=O)[C@H](CCCNC(=N)N)NC(=O)[C@H](CCSC)NC(=O)[C@H](CO)NC(=O)[C@H](C)NC(=O)[C@H](CCC(=O)O)NC(=O)C(C)(C)NC(=O)[C@H](CC(=O)O)NC(=O)[C@@H](C)NC(=O)[C@H](CC(C)C)NC(=O)[C@H](CCC(=O)O)NC(=O)[C@H](CC(=O)O)NC(=O)[C@H](CC(C)C)NC(=O)[C@H](CC(C)C)NC(=O)[C@H](CCCNC(=N)N)NC(=O)[C@H](CCSC)NC(=O)[C@@H](NC(=O)[C@H](CCC(=O)O)NC(=O)[C@H](Cc1ccc(O)cc1)NC(=O)[C@@H](NC(=O)[C@H](CCCCN)NC(=O)[C@H](CCC(N)=O)NC(=O)[C@H](CC(C)C)NC(=O)[C@@H](NC(=O)[C@H](Cc1c[nH]c2ccccc12)NC(=O)[C@H](CCC(=O)O)NC(=O)[C@H](CCCCN)NC(=O)[C@@H](N)CC(=O)O)[C@@H](C)CC)[C@@H](C)CC)[C@@H](C)CC)C(C)C)C(=O)N[C@@H](Cc1ccc(O)cc1)C(=O)N[C@@H](CCC(=O)O)C(=O)N[C@@H](CC1CCCCC1)C(=O)N[C@@H](CCSC)C(=O)N[C@@H](CCCCN)C(=O)N[C@@H](CCCCN)C(N)=O` [SIH-11] (H-DKEWILQKIYEIMRLLDEL[dA]D[Aib]EASMRVSDLIYE[Cha]MKK-NH2), for which, at SARS-CoV-2 RBD, the Kd was determined as 1.3 nM. In addition, the “Selectivity index (50% cytotoxic concentration divided by IC50)” value in the data set with Vero-E6 cells was > 50,000. In addition, the viability at 48 h, 20 µM in data set [3] was greater than 75%. Moreover, in data set [2], the IC50 fell in the range of 125 to 250 nM.
